Measured values: US20240252454A1, “COMPOSITION COMPRISING AN INHIBITOR OF MITOCHONDRIAL TRANSCRIPTION” (LEAD DISCOVERY CENTER GMBH, priority 2021, published 2024)

What was measured:
Assay in all cases: SRB assay, IMT combined with inhibitor
Format in all cases: cell-based
HCT116 = HCT116 (colon); concentration series of the labelled inhibitor + fixed concentration of IMT (3S)-1-[(2R)-2-[4-(2-chloro-4-fluoro-phenyl)-2-oxo-chromen-7-yl]oxypropanoyl]piperidine-3-carboxylic acid (Table 3: 40 nM, 120 h); negative=synergistic, positive=antagonistic
Protocol: (§1) Solforhodamine B assay is carried out as described in Voigt W. (2005) Sulforhodamine B Assay and Chemosensitivity. (Methods in Molecular Medicine™, vol 110. Humana Press. https://doi.org/10.1385/1-59259-869-2:039).
(§2) The determination of changes in cellular biomass was based on the Solforhodamine B assay format, carried out as described in Voigt W. (2005) Sulforhodamine B Assay and Chemosensitivity. (Methods in Molecular Medicine™, vol 110. Humana Press. https://doi.org/10.1385/1-59259-869-2:039).
(§3) All in vitro cell culture experiments were carried out under near physiological glucose concentrations (5 mM) in at least two independent replicates.
(§4) First, 30 different cell lines from 14 different tissue types were tested in the SRB assay format. The cells were examined individually for changes in growth over a period of 120 hours with dilution series of both inhibitors. Untreated cells were used as a negative control group. Subsequently, a dilution series of the respective MAPK signalling pathway SOCs was treated in combination with a fixed concentration of 40 nM (3S)-1-[(2R)-2-[4-(2-chloro-4-fluoro-phenyl)-2-oxo-chromen-7-yl]oxypropanoyl]piperidine-3-carboxylic acid.

U87MG = U87MG (brain); concentration series of the labelled inhibitor + fixed concentration of IMT (3S)-1-[(2R)-2-[4-(2-chloro-4-fluoro-phenyl)-2-oxo-chromen-7-yl]oxypropanoyl]piperidine-3-carboxylic acid (Table 3: 40 nM, 120 h); negative=synergistic, positive=antagonistic
Protocol: as §1, §2, §3, §4

U2OS = U2OS (bone); concentration series of the labelled inhibitor + fixed concentration of IMT (3S)-1-[(2R)-2-[4-(2-chloro-4-fluoro-phenyl)-2-oxo-chromen-7-yl]oxypropanoyl]piperidine-3-carboxylic acid (Table 3: 40 nM, 120 h); negative=synergistic, positive=antagonistic
Protocol: as §1, §2, §3, §4

HT29 = HT29 (colon); concentration series of the labelled inhibitor + fixed concentration of IMT (3S)-1-[(2R)-2-[4-(2-chloro-4-fluoro-phenyl)-2-oxo-chromen-7-yl]oxypropanoyl]piperidine-3-carboxylic acid (Table 3: 40 nM, 120 h); negative=synergistic, positive=antagonistic
Protocol: as §1, §2, §3, §4

SW620 = SW620 (colon); concentration series of the labelled inhibitor + fixed concentration of IMT (3S)-1-[(2R)-2-[4-(2-chloro-4-fluoro-phenyl)-2-oxo-chromen-7-yl]oxypropanoyl]piperidine-3-carboxylic acid (Table 3: 40 nM, 120 h); negative=synergistic, positive=antagonistic
Protocol: as §1, §2, §3, §4

MHHES1 = MHHES1 (bone); concentration series of the labelled inhibitor + fixed concentration of IMT (3S)-1-[(2R)-2-[4-(2-chloro-4-fluoro-phenyl)-2-oxo-chromen-7-yl]oxypropanoyl]piperidine-3-carboxylic acid (Table 3: 40 nM, 120 h); negative=synergistic, positive=antagonistic
Protocol: as §1, §2, §3, §4

IMR90 = IMR90 (lung); concentration series of the labelled inhibitor + fixed concentration of IMT (3S)-1-[(2R)-2-[4-(2-chloro-4-fluoro-phenyl)-2-oxo-chromen-7-yl]oxypropanoyl]piperidine-3-carboxylic acid (Table 3: 40 nM, 120 h); negative=synergistic, positive=antagonistic
Protocol: as §1, §2, §3, §4

HEPG2 = HEPG2 (liver); concentration series of the labelled inhibitor + fixed concentration of IMT (3S)-1-[(2R)-2-[4-(2-chloro-4-fluoro-phenyl)-2-oxo-chromen-7-yl]oxypropanoyl]piperidine-3-carboxylic acid (Table 3: 40 nM, 120 h); negative=synergistic, positive=antagonistic
Protocol: as §1, §2, §3, §4

GRANTA-519 = GRANTA-519 (hematological); concentration series of the labelled inhibitor + fixed concentration of IMT (3S)-1-[(2R)-2-[4-(2-chloro-4-fluoro-phenyl)-2-oxo-chromen-7-yl]oxypropanoyl]piperidine-3-carboxylic acid (Table 3: 40 nM, 120 h); negative=synergistic, positive=antagonistic
Protocol: as §1, §2, §3, §4

PANC1 = PANC1 (pancreas); concentration series of the labelled inhibitor + fixed concentration of IMT (3S)-1-[(2R)-2-[4-(2-chloro-4-fluoro-phenyl)-2-oxo-chromen-7-yl]oxypropanoyl]piperidine-3-carboxylic acid (Table 3: 40 nM, 120 h); negative=synergistic, positive=antagonistic
Protocol: as §1, §2, §3, §4

SKMEL5 = SKMEL5 (skin); concentration series of the labelled inhibitor + fixed concentration of IMT (3S)-1-[(2R)-2-[4-(2-chloro-4-fluoro-phenyl)-2-oxo-chromen-7-yl]oxypropanoyl]piperidine-3-carboxylic acid (Table 3: 40 nM, 120 h); negative=synergistic, positive=antagonistic
Protocol: as §1, §2, §3, §4

COLO205 = COLO205 (colon); concentration series of the labelled inhibitor + fixed concentration of IMT (3S)-1-[(2R)-2-[4-(2-chloro-4-fluoro-phenyl)-2-oxo-chromen-7-yl]oxypropanoyl]piperidine-3-carboxylic acid (Table 3: 40 nM, 120 h); negative=synergistic, positive=antagonistic
Protocol: as §1, §2, §3, §4

A2780 = A2780 (ovary); concentration series of the labelled inhibitor + fixed concentration of IMT (3S)-1-[(2R)-2-[4-(2-chloro-4-fluoro-phenyl)-2-oxo-chromen-7-yl]oxypropanoyl]piperidine-3-carboxylic acid (Table 3: 40 nM, 120 h); negative=synergistic, positive=antagonistic
Protocol: In two studies, the ovarian cell line A2780 was tested for 72 hours with the IMT N,N-dimethyl-2-[4-(o-tolyl)-2-oxo-chromen-7-yl]oxy-propanamide (30 μM-15 nM) and the MEK inhibitor Selumetinib (30 μM-10 nM), or with the IMT 1-[2-[4-(2-chlorophenyl)-2-oxo-chromen-7-yl]oxypropanoyl]piperidine-3-sulfonamide (30 μM-15 nM) and the MEK inhibitor PD318088 (30 μM-10 nM).
as §1, §2, §3, §4

| Structure (SMILES) | difference between the calculated combinatorial index (BLISS) and the observed combinatorial effect (HCT116) | difference between the calculated combinatorial index (BLISS) and the observed combinatorial effect (U87MG) | difference between the calculated combinatorial index (BLISS) and the observed combinatorial effect (U2OS) | difference between the calculated combinatorial index (BLISS) and the observed combinatorial effect (HT29) | difference between the calculated combinatorial index (BLISS) and the observed combinatorial effect (SW620) | difference between the calculated combinatorial index (BLISS) and the observed combinatorial effect (MHHES1) | difference between the calculated combinatorial index (BLISS) and the observed combinatorial effect (IMR90) | difference between the calculated combinatorial index (BLISS) and the observed combinatorial effect (HEPG2) | difference between the calculated combinatorial index (BLISS) and the observed combinatorial effect (GRANTA-519) | difference between the calculated combinatorial index (BLISS) and the observed combinatorial effect (PANC1) | difference between the calculated combinatorial index (BLISS) and the observed combinatorial effect (SKMEL5) | difference between the calculated combinatorial index (BLISS) and the observed combinatorial effect (COLO205) | difference between the calculated combinatorial index (BLISS) and the observed combinatorial effect (A2780) |
| --- | --- | --- | --- | --- | --- | --- | --- | --- | --- | --- | --- | --- | --- |
| CC(=O)Nc1cccc(-n2c(=O)n(C3CC3)c(=O)c3c(Nc4ccc(I)cc4F)n(C)c(=O)c(C)c32)c1 [Trametinib] | −0.0027 | 0.0578 | −0.0358 | 0.0338 | 0.0028 | 0.0760 | 0.0533 | 0.0351 | −0.0185 | 0.0596 | 0.0072 | 0.0319 | 0.0305 |
| CC(C)Nc1cc(-c2c[nH]c(C(=O)N[C@H](CO)c3cccc(Cl)c3)c2)c(Cl)cn1 [Ulixertinib] | −0.0066 | 0.0859 | −0.0165 | 0.0702 | 0.0256 | 0.0992 | 0.0678 | 0.0953 | 0.0393 | 0.0634 | −0.0542 | 0.0384 | −0.0025 |
| Cn1cnc2c(F)c(Nc3ccc(Br)cc3Cl)c(C(=O)NOCCO)cc21 [Selumetinib] | −0.0774 | 0.0486 | −0.1010 | 0.0236 | −0.0547 | 0.0218 | −0.0291 | 0.0032 | 0.0050 | 0.0867 | −0.0968 | 0.0142 | −0.0046 |
| Cc1cc(C(=O)NOCCO)c(Nc2ccc(I)cc2F)n(C)c1=O [AZD8330, 2-((2-Fluoro-4-iodophenyl)amino)-N-(2-hydroxyethoxy)-1,5-dimethyl-6-oxo-1,6-dihydropyridine-3-carboxamide] | −0.0196 | 0.0579 | −0.0171 | 0.0488 | −0.0037 | 0.0682 | 0.0338 | 0.0270 | −0.0506 | 0.0157 | 0.0135 | 0.0127 | 0.0118 |
| O=C(NOC[C@H](O)CO)c1ccc(F)c(F)c1Nc1ccc(I)cc1F [PD 0325901, (R)—N-(2,3-dihydroxypropoxy)-3,4-difluoro-2-((2-fluoro-4-iodophenyl)amino)benzamide] | −0.0042 | 0.0604 | 0.0014 | 0.0786 | 0.0316 | 0.0437 | 0.0387 | 0.0334 | 0.0420 | 0.1000 | 0.0095 | 0.0261 | −0.0318 |
